# Experimental data reported in patent US6294535A, “Uracil derivatives and antitumor effect potentiator and antitumor agent containing the same” (Taiho Pharmaceutical Co., Ltd., priority 1995, dated 2001).
# Where two headings read alike, the source gives them in different places.
# Tests used:
# thymidine phosphorylase = conditions: reported to date; cited from earlier work
# [1] = biological target: T1, thymidine phosphorylase obtained from human placenta (Homo sapiens, UniProt P19971); test: Test 1: thymidine phosphorylase inhibiting effects (formation of [6-3H]thymine from [6-3H]thymidine); format: biochemical; conditions: 37° C., 5 minutes, pH 7.4, 3 mM thymidine solution
# T1 construct: thymidine phosphorylase obtained from human placenta in a highly purified form; from tissue; host or cells: human placenta
# T1 sequence (P19971 11-482): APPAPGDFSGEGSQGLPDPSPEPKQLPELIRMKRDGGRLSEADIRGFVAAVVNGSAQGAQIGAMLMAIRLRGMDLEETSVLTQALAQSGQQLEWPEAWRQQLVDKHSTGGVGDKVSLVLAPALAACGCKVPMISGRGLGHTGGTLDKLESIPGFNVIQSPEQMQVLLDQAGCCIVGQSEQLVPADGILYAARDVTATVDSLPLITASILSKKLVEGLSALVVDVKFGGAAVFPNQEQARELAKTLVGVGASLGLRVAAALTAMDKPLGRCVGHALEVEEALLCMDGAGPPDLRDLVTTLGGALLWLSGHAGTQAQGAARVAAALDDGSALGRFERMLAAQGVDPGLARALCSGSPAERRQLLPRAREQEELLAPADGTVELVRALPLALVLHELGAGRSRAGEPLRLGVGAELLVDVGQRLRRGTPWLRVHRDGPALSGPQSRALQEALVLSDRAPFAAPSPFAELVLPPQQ
# [2] = antitumor; cited from earlier work
# [3] = test system: Nude-mouse-transplanted human tumor
# [4] = test system: Nude-mouse-transplanted human tumor; test: Test 2: antitumor effects, nude-mouse-transplanted human tumor; format: in vivo; conditions: oral, once a day for 14 days
# [5] = test system: Nude-mouse-transplanted human tumor; test: Test 4: antitumor effects, therapeutic index of F3 dThd with Compound 2; format: in vivo; conditions: oral, once a day for 14 days
# Text: Test 4 (Antitumor Effects)
# herpetic keratitis = conditions: used as an eye drop for herpetic keratitis; cited from earlier work
# S-180 cells = conditions: oral, once a day for 7 days
smiles,measurement,setting,value
"N#Cc1ccc(O)nc1O [3-Cyano-2,6-dihydroxypyridine]",inhibitory activities against thymidine phosphorylase,thymidine phosphorylase,not sufficient
Cc1cn(COCCO)c(=O)[nH]c1=O [Acyclothymidine],inhibitory activities against thymidine phosphorylase,thymidine phosphorylase,not sufficient
same,IC50,[1],> 1000 µM
"O=c1[nH]c(=O)n([C@H]2C[C@H](O)[C@@H](CO)O2)cc1C(F)(F)F [F3 dThd, 5-Trifluoromethyl-2'-deoxyuridine]",in vitro activities,[2],strong in vitro activities
same,Therapeutic index BWC-10 /ED50,"[3]; mouse, in vivo, po",2.7
same,BWC-10,"[3]; mouse, in vivo, po, 20160 min",73.8 mg/kg
same,ED50,"[3]; oral, once a day for 14 days, 12.5-100 mg/kg in terms of F3 dThd",26.9 mg/kg
same,Tumor size reduction rate,[4]; 50 mg/kg in terms of F3 dThd,27%
same,Tumor size reduction rate,[4]; 100 mg/kg in terms of F3 dThd,50%
same,BWC-10,"[5]; body weight change, in terms of F3 dThd",103 mg/kg
same,Therapeutic index BWC-10 /ED50,[5],1.7
same,ED50,[5]; 12.5-100 mg/kg in terms of F3 dThd,60.0 mg/kg
same,antiviral activities,herpetic keratitis,has antiviral activities
"O=c1[nH]c(=O)n([C@H]2C[C@H](O)[C@@H](CO)O2)cc1F [FdUrd, 5-Fluoro-2'-deoxyuridine]",Tumor size reduction rate,S-180 cells; 5 mg/kg in terms of FdUrd,10.5%
same,Tumor size reduction rate,S-180 cells; 10 mg/kg in terms of FdUrd,24.4%
same,in vitro activities,[2],strong in vitro activities
